Strand notation (5' to 3'): a small letter for the sugar, then the base; units joined by * are phosphorothioate-linked, units joined directly phosphodiester-linked; [ ] holds rarer units or linkages, { } end groups; capitals alone tell only the bases. e = 2'-O-(2-methoxyethyl) (MOE); [5mC] = 5-methylcytosine; d = 2'-deoxy (DNA)
Experiments:
Format in all cases: in vivo, mouse
[1] = Organ weights: liver, white adipose tissue, spleen, kidney (Example 4, Table 33); settings: 48 h, C57/BL6 mice
Procedure: (§1) Eight-week old male C57/BL6 mice (Jackson Laboratory, Bar Harbor, Me.) were administered a single dose of GCGR oligonucleotide by intraperitoneal injection at a concentration of […]. Each dose group consisted of four animals. Shown in Table 31 are the sequences, motifs and conjugates of the GCGR antisense compounds used in this study. Bolded residues indicate 2′-O-methoxyethyl (2′-MOE) moieties. All compounds comprise phosphorothioate internucleoside linkages throughout and each cytosine is replaced with 5-methylcytosine. ISIS 386626, ISIS 386627 and ISIS 386628 further comprise a C16 conjugate group attached to the 2′-O position of the sugar via a diamide linkage (2′-OCH2C(═O)N(H)(CH2)4N(H)C(═O)—(CH2)15CH3). GCGR antisense compounds target published GCGR sequences, including Genbank® Accession No. BC031885.1 (SEQ ID NO: 7).
(§2) Mice were sacrificed 48 hours following injection to determine serum transaminase levels (Table 32); liver, white adipose tissue (WAT), spleen and kidney weight (Table 33); cholesterol, triglyceride and glucose levels (Table 34); GCGR mRNA levels (Tables 35-41); and full-length and total oligonucleotide concentration in liver and kidney (Table 42). Endpoints were assessed using methods described herein and well known to those of ordinary skill in the art. Data is included from a pre-treatment bleed (Pre-Bleed) and post-treatment bleed (Post-Bleed).

[2] = Triglyceride, cholesterol and glucose levels, pre-bleed and post-bleed (Example 4, Table 34); parameters: TRIG Pre-Bleed / TRIG Post-Bleed / CHOL Pre-Bleed / CHOL Post-Bleed / Glucose Pre-Bleed / Glucose Post-Bleed: unit not given here; settings: C57/BL6 mice; for CHOL Pre-Bleed / Glucose Pre-Bleed / TRIG Pre-Bleed: pre-treatment bleed; for CHOL Post-Bleed / Glucose Post-Bleed / TRIG Post-Bleed: post-treatment bleed, 48 h
[3] = ALT & AST levels, C57/BL6 mice (Example 4, Table 32); settings: for ALT Pre-Bleed / AST Pre-Bleed: pre-treatment bleed; for ALT Post-Bleed / AST Post-Bleed: 48 hours following injection
Procedure: as §1, §2

GCGR mRNA = GCGR mRNA levels in liver of C57/BL6 mice, single i.p. dose (Example 4, Tables 35-41); settings: 48 h
Procedure: as §1, §2
To determine whether the phenotypic changes shown above correlated with a decrease in GCGR mRNA, treated animals were evaluated for levels of target mRNA in liver by real time PCR according to methods described herein. Tables 35 to 41 show results from direct comparisons of the antisense compounds targeting GCGR nucleic acid for their effect on target expression. Results are expressed as percent of saline control.

[4] = Total and full-length antisense compound concentrations in liver and kidney (Example 4, Table 42); settings: C57/BL6 mice; single i.p. dose; 48 h; dose not given
Procedure: as §1, §2
Treatment with the 2-10-2 MOE gapmers led to a significant dose-dependent decrease in GCGR mRNA expression. […] To determine whether the observed increase in efficiency with the short antisense compounds is due to an increase in antisense compound accumulation, full-length and total antisense compound concentration in the liver and kidney were determined.

Substance: 148364 (antisense eT*eG*e[5mC]*eA*e[5mC]*dT*dT*dT*dG*dT*dG*dG*dT*dA*d[5mC]*e[5mC]*eA*eA*eG*eG) [compound 148364]
- Organ weight: Kidney ([1]; 6.25 mg/kg single i.p.): 104 % saline control
- Organ weight: Liver ([1]; 6.25 mg/kg single i.p.): 101 % saline control
- Organ weight: Spleen ([1]; 6.25 mg/kg single i.p.): 113 % saline control
- Organ weight: WAT ([1]; 6.25 mg/kg single i.p.): 89 % saline control
- Organ weight: Kidney ([1]; 12.5 mg/kg single i.p.): 108 % saline control
- Organ weight: Liver ([1]; 12.5 mg/kg single i.p.): 100 % saline control
- Organ weight: Spleen ([1]; 12.5 mg/kg single i.p.): 96 % saline control
- Organ weight: WAT ([1]; 12.5 mg/kg single i.p.): 84 % saline control
- Organ weight: Kidney ([1]; 25 mg/kg single i.p.): 112 % saline control
- Organ weight: Liver ([1]; 25 mg/kg single i.p.): 103 % saline control
- Organ weight: Spleen ([1]; 25 mg/kg single i.p.): 115 % saline control
- Organ weight: WAT ([1]; 25 mg/kg single i.p.): 75 % saline control
- Organ weight: Kidney ([1]; 50 mg/kg single i.p.): 108 % saline control
- Organ weight: Liver ([1]; 50 mg/kg single i.p.): 103 % saline control
- Organ weight: Spleen ([1]; 50 mg/kg single i.p.): 123 % saline control
- Organ weight: WAT ([1]; 50 mg/kg single i.p.): 80 % saline control
- CHOL Pre-Bleed ([2]; 6.25 mg/kg group): 86
- Glucose Pre-Bleed ([2]; 6.25 mg/kg group): 226
- TRIG Pre-Bleed ([2]; 6.25 mg/kg group): 86
- CHOL Post-Bleed ([2]; 6.25 mg/kg single i.p.): 89
- Glucose Post-Bleed ([2]; 6.25 mg/kg single i.p.): 215
- TRIG Post-Bleed ([2]; 6.25 mg/kg single i.p.): 162
- CHOL Pre-Bleed ([2]; 12.5 mg/kg group): 85
- Glucose Pre-Bleed ([2]; 12.5 mg/kg group): 198
- TRIG Pre-Bleed ([2]; 12.5 mg/kg group): 106
- CHOL Post-Bleed ([2]; 12.5 mg/kg single i.p.): 89
- Glucose Post-Bleed ([2]; 12.5 mg/kg single i.p.): 256
- TRIG Post-Bleed ([2]; 12.5 mg/kg single i.p.): 179
- CHOL Pre-Bleed ([2]; 25 mg/kg group): 83
- Glucose Pre-Bleed ([2]; 25 mg/kg group): 219
- TRIG Pre-Bleed ([2]; 25 mg/kg group): 115
- CHOL Post-Bleed ([2]; 25 mg/kg single i.p.): 96
- Glucose Post-Bleed ([2]; 25 mg/kg single i.p.): 239
- TRIG Post-Bleed ([2]; 25 mg/kg single i.p.): 200
- CHOL Pre-Bleed ([2]; 50 mg/kg group): 81
- Glucose Pre-Bleed ([2]; 50 mg/kg group): 207
- TRIG Pre-Bleed ([2]; 50 mg/kg group): 110
- CHOL Post-Bleed ([2]; 50 mg/kg single i.p.): 94
- Glucose Post-Bleed ([2]; 50 mg/kg single i.p.): 228
- TRIG Post-Bleed ([2]; 50 mg/kg single i.p.): 177
- ALT Pre-Bleed ([3]; 6.25 mg/kg dose group): 28 IU/L
- AST Pre-Bleed ([3]; 6.25 mg/kg dose group): 47 IU/L
- ALT Pre-Bleed ([3]; 12.5 mg/kg dose group): 23 IU/L
- AST Pre-Bleed ([3]; 12.5 mg/kg dose group): 44 IU/L
- ALT Pre-Bleed ([3]; 25 mg/kg dose group): 26 IU/L
- AST Pre-Bleed ([3]; 25 mg/kg dose group): 42 IU/L
- ALT Pre-Bleed ([3]; 50 mg/kg dose group): 24 IU/L
- AST Pre-Bleed ([3]; 50 mg/kg dose group): 40 IU/L
- ALT Post-Bleed ([3]; single i.p. dose 6.25 mg/kg): 34 IU/L
- AST Post-Bleed ([3]; single i.p. dose 6.25 mg/kg): 76 IU/L
- ALT Post-Bleed ([3]; single i.p. dose 12.5 mg/kg): 32 IU/L
- AST Post-Bleed ([3]; single i.p. dose 12.5 mg/kg): 69 IU/L
- ALT Post-Bleed ([3]; single i.p. dose 25 mg/kg): 35 IU/L
- AST Post-Bleed ([3]; single i.p. dose 25 mg/kg): 87 IU/L
- ALT Post-Bleed ([3]; single i.p. dose 50 mg/kg): 40 IU/L
- AST Post-Bleed ([3]; single i.p. dose 50 mg/kg): 115 IU/L
- GCGR mRNA levels in liver (GCGR mRNA; 6.25 mg/kg single i.p., Table 35 comparison ISIS 148364 & ISIS 386626): 62% of saline control
- GCGR mRNA levels in liver (GCGR mRNA; 6.25 mg/kg single i.p., Table 36 comparison ISIS 148364 & ISIS 386627): 86% of saline control
- GCGR mRNA levels in liver (GCGR mRNA; 6.25 mg/kg single i.p., Table 37 comparison ISIS 148364 & ISIS 386593): 86% of saline control
- GCGR mRNA levels in liver (GCGR mRNA; 6.25 mg/kg single i.p., Table 38 comparison ISIS 148364 & ISIS 386628): 101% of saline control
- GCGR mRNA levels in liver (GCGR mRNA; 6.25 mg/kg single i.p., Table 39 comparison ISIS 148364 & ISIS 386594): 96% of saline control
- GCGR mRNA levels in liver (GCGR mRNA; 12.5 mg/kg single i.p., Table 35 comparison ISIS 148364 & ISIS 386626): 87% of saline control
- GCGR mRNA levels in liver (GCGR mRNA; 12.5 mg/kg single i.p., Table 36 comparison ISIS 148364 & ISIS 386627): 105% of saline control
- GCGR mRNA levels in liver (GCGR mRNA; 12.5 mg/kg single i.p., Table 37 comparison ISIS 148364 & ISIS 386593): 105% of saline control
- GCGR mRNA levels in liver (GCGR mRNA; 12.5 mg/kg single i.p., Table 38 comparison ISIS 148364 & ISIS 386628): 98% of saline control
- GCGR mRNA levels in liver (GCGR mRNA; 12.5 mg/kg single i.p., Table 39 comparison ISIS 148364 & ISIS 386594): 102% of saline control
- GCGR mRNA levels in liver (GCGR mRNA; 25 mg/kg single i.p., Table 35 comparison ISIS 148364 & ISIS 386626): 79% of saline control
- GCGR mRNA levels in liver (GCGR mRNA; 25 mg/kg single i.p., Table 36 comparison ISIS 148364 & ISIS 386627): 87% of saline control
- GCGR mRNA levels in liver (GCGR mRNA; 25 mg/kg single i.p., Table 37 comparison ISIS 148364 & ISIS 386593): 74% of saline control
- GCGR mRNA levels in liver (GCGR mRNA; 25 mg/kg single i.p., Table 38 comparison ISIS 148364 & ISIS 386628): 77% of saline control
- GCGR mRNA levels in liver (GCGR mRNA; 25 mg/kg single i.p., Table 39 comparison ISIS 148364 & ISIS 386594): 98% of saline control
- GCGR mRNA levels in liver (GCGR mRNA; 50 mg/kg single i.p., Table 35 comparison ISIS 148364 & ISIS 386626): 36% of saline control
- GCGR mRNA levels in liver (GCGR mRNA; 50 mg/kg single i.p., Table 36 comparison ISIS 148364 & ISIS 386627): 63% of saline control
- GCGR mRNA levels in liver (GCGR mRNA; 50 mg/kg single i.p., Table 37 comparison ISIS 148364 & ISIS 386593): 56% of saline control
- GCGR mRNA levels in liver (GCGR mRNA; 50 mg/kg single i.p., Table 38 comparison ISIS 148364 & ISIS 386628): 42% of saline control
- GCGR mRNA levels in liver (GCGR mRNA; 50 mg/kg single i.p., Table 39 comparison ISIS 148364 & ISIS 386594): 59% of saline control
- Full-length antisense compound concentration, Kidney [4]: 58 µg/g
- Full-length antisense compound concentration, Liver [4]: 46 µg/g
- Total antisense compound concentration, Kidney [4]: 90 µg/g
- Total antisense compound concentration, Liver [4]: 54 µg/g

— patent US8188059B2, “Compounds and methods for modulating expression of GCGR” (Isis Pharmaceuticals, Inc., priority 2006, dated 2012)
